# pIC50: −log10 of the molar value.
# How the values were obtained:
# [1] = target: MAPK14 (human) (UniProt Q16539); assay: In vitro Inhibition of TNF-alpha Production in PBMC Cells
# [2] = tested on: MAPK14 (BALB/cJ mice); assay: In vivo Inhibition of LPS-induced TNF-alpha Production; conditions: dose or concentration not given here
# [3] = target: MAPK14 (UniProt Q16539); assay: In vitro Inhibition of MAPK14 Kinase Activity
# MAPK14, sequence (Q16539 whole entry, looked up): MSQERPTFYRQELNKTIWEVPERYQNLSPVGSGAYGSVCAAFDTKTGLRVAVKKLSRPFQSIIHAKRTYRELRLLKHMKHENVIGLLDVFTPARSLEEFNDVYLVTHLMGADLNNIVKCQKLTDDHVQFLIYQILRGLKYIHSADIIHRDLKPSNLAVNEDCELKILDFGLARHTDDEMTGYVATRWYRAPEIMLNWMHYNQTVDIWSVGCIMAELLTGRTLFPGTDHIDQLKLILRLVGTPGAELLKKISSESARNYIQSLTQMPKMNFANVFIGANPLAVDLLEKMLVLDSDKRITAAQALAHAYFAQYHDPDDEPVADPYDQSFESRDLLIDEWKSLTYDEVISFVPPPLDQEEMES
# MAPK14 (human), sequence (Q16539 whole entry, looked up): as above
compound,measurement,setting,value
COC(=O)c1c(-c2ccc(F)cc2)c(-c2ccncc2)c(N2CCNCC2)n1C,pIC50,[1],7.48
same,inhibition,[2],73%
same,pIC50,[3],5.00

# — the Kinase Knowledgebase extract (Sharma et al. 2016)
